As usually defined, the half-life is the time in which the quantity being followed falls by half. A higher half-life goes with slow loss.

The source of these data is patent US20260248969A1, “PEPTIDE MULTIMER PRODUCTS AND METHODS” (REGENTS OF THE UNIVERSITY OF MICHIGAN, priority 2023, published 2026).

The test system of data set [1] is CD44. Nature of the data set: Co-localization of peptide monomer and anti-CD44-AF488 binding to SK-Hep1 cells. Conditions: SK-Hep1 human HCC cells. The procedure: Specific binding of the optimized IRDye800-labeled […] monomer peptide was substantiated using a co-localization of binding to known antibodies. Human Hep3B, HepG2, and Sk-Hep1 HCC cells that overexpress early-stage HCC targets were used. A Pearson's correlation coefficient ρ was calculated from fluorescence intensities on merged images. Measurements were made from n=10 cells chosen randomly from 3 slides. Data for CD44 is shown in FIG. 4A, and similar data was obtained for GPC3 and EpCAM. As shown in the figure, binding by WKG*-IRDye800 and anti-CD44-AF488 to the surface (arrows) of Sk-Hep1 cells co-localized with a correlation of p=0.81 measured on the merged image.

Data set [2] has as its system CD44. Nature of the data set: Apparent dissociation constant by flow cytometry on SK-Hep1 cells. Conditions: 0-200 nM, R^2=0.99. In kind it is binding, human. For orientation: A flow cytometer gives signals particle by particle.
Method: The equilibrium dissociation constant kd=1/ka was calculated by performing using a least square fit of the data to the non-linear equation I=(I0+Imaxka[X])/(I0+ka[X]). I0 and Imax are the initial and maximum fluorescence intensities, corresponding to no peptide and at saturation, respectively, and [X] represents the concentration of the bound peptide. Results are the mean values from 3 independent experiments.
The apparent dissociation constant (kd) of the IRDye800-labeled WKG* peptide monomer was measured to provide an estimate of binding affinity. The IRDye800-labeled monomer was incubated with human HCC cells over a range of concentrations. Fluorescence intensities were measured with flow cytometry. WKG*-IRDye800 was incubated with SK-Hep1 cells over concentrations ranging from 0-200 nM, and the fluorescence intensity was measured with flow cytometry.
The conditions of data set [3]: mouse, in vivo, iv.
Method: C) Serum stability of WKG*-IRDye800 (200 μM in 200 μL of PBS) in mice (n=5) was measured following intravenous injection. Serum was collected at various time points from 0-24 hours post-injection.
The optimized WKG* monomer labeled with IRDye800 was incubated in serum to determine half-life T1/2. Stability in mouse serum over time was measured using analytical RP-HPLC. The relative concentration was calculated from the area-under-the-peak, and the intensities were fit to a first order kinetic model, and the serum half-life T1/2 was determined.
For data set [4], the system named is orthotopic HCC PDX tumors. Nature of the data set: In vivo whole body NIR fluorescence imaging of orthotopic HCC PDX tumors. Also on record: species or system mouse. Conditions: P<1×10^−4 by paired t-test. On the procedure:
(§1) In vivo imaging was performed to assess HCC tumor uptake, biodistribution, and clearance of the optimized multimer. […] The target-to-background (T/B) ratio for the multimer was ~1.8-fold greater than that for monomer and free Gd-DOTA from the same tumor in n=3 animals. The target region was segmented using the Chan-Vese algorithm. The background region was defined by dilating the target region. Clearance of the MR signal occurred after ~4 hours post-injection. Data from whole body NIR fluorescence images collected in vivo from the orthotopic HCC tumor following intravenous injection of the lead candidate EpCAM target and control peptides is shown in FIG. 6C. […] For the differences and variances shown in FIG. 60, the power is >95% to obtain P<0.01 for target versus control using n=8 mice per group.

The test system of data set [5] is orthotopic HCC PDX tumors. Kind of data set: In vivo MR imaging of tumor uptake, orthotopic HCC PDX model. Conditions: peak uptake 0.5 hours post-injection, same tumor in n=3 mice. Also on record: species or system mouse. The procedure: as §1
In vivo tumor uptake of the peptide multimer was evaluated in an orthotopic HCC PDX mouse model using T1-weighted MR images. The Gd-DOTA labeled peptide multimer and peptide monomers specific for GPC3, CD44, and EpCAM were intravenously injected at a concentration of 300 μM in 200 μL of PBS via the tail vein of mice bearing orthotopic PDX tumors, FIG. 13A-E. Gd-DOTA (300 μM in 200 μL PBS) was also intravenously injected as a control. T1-weighted MR images were acquired using a 7T horizontal bore small animal magnet (SGRAD 205/120/HD/S, Agilent Technologies). […]

Data set [6] concerns the target T1, CD44 (cluster of differentiation 44) (human, UniProt P16070 21-742).
T1 construct: whole, on cells; Endogenous target on human HCC cells and tissues; no recombinant protein was used
Kind of data set: quantified fluorescence on CCA-156 cells, 5 uM; multimer signal comes from cells that carry GPC3, CD44 and EpCAM. The procedure:
(§2) Approximately 10³ CCA-156 cells were grown on the cover glass in a 24-well plate to ~90% confluence. The cells were washed with PBS twice and incubated with 5 μM of either Cy5.5-labeled peptide multimer or peptide monomer for 5 min on ice. The cells were then washed with PBS for 3X, fixed with 4% paraformaldehyde (PFA) in PBS for 15 min, washed with PBS for twice, then mounted on glass slides with ProLong Gold reagent containing DAPI (Invitrogen).

Another data set deals with T2, Glypican-3 (GPC3) (human, UniProt P51654 25-554).
T2 construct: whole, on cells; Endogenous target on human HCC cells and tissues
Described as above. On the procedure:
as §2

Data set [7] deals with T3, Epithelial cell adhesion molecule (EpCAM) (human, UniProt P16422 24-314).
T3 construct: whole, on cells; Endogenous target on human HCC cells and tissues
T3 sequence (looked up): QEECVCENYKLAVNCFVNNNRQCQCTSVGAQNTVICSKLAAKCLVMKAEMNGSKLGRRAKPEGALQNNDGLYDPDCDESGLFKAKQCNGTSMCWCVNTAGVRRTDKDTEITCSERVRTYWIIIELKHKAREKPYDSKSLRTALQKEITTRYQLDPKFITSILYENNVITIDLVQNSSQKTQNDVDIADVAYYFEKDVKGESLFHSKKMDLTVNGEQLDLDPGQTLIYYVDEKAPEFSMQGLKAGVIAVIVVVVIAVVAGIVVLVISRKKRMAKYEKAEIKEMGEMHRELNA
Described as above. On the procedure: as §2

Data set [8] has as its target T1, CD44 (cluster of differentiation 44). Nature of the data set: flow cytometry, labeled peptide 0-200 nM on SK-Hep1 human HCC cells; apparent dissociation constant. The procedure: A) WKG*-IRDye800 and anti-CD44-AF488 bind intensely to the surface (arrows) of SK-Hep1 human HCC cells. A Pearson's correlation coefficient of r=0.81 was measured from the merged image. […] B) An apparent dissociation constant of kd=43 nM, R²=0.99, was measured for WKG*-IRDye800 binding to SK-Hep1 cells. The equilibrium dissociation constant kd=1/kₐ was calculated by performing using a least square fit of the data to the non-linear equation […]. I₀ and Iₘₐₓ are the initial and maximum fluorescence intensities, corresponding to no peptide and at saturation, respectively, and [X] represents the concentration of the bound peptide. Results are the mean values from 3 independent experiments. C) Serum stability of WKG*-IRDye800 (200 μM in 200 μL of PBS) in mice (n=5) was measured following intravenous injection. […] The fluorescence intensity I(t) was measured and fit to a first-order kinetics model I(t)=Iₒ+A×exp(−Bt), and a serum half-life of T_{1/2}=5.1 hours was calculated.
The apparent dissociation constant (kd) of the IRDye800-labeled WKG* peptide monomer was measured to provide an estimate of binding affinity. […] Fluorescence intensities were measured with flow cytometry. WKG*-IRDye800 was incubated with SK-Hep1 cells over concentrations ranging from 0-200 nM, and the fluorescence intensity was measured with flow cytometry. […]

Data set [9] concerns the target T3, Epithelial cell adhesion molecule …. Nature of the data set: fluorescence microscopy, 5 uM on CCA-156 cells. The procedure: as §2

Residues, ends and D or L forms follow the SMILES beside them. No end group written: not given here. *: point of attachment. IRDye800CW = CC1(C)C(/C=C/C2=C(Oc3ccc(S(=O)(=O)O)cc3)C(=C/C=C3/N(CCCCS(=O)(=O)O)c4ccc(S(=O)(=O)O)cc4C3(C)C)/CCC2)=[N+](CCCCCC(=O)*)c2ccc(S(=O)(=O)[O-])cc21

T1 sequence (P16070 21-742): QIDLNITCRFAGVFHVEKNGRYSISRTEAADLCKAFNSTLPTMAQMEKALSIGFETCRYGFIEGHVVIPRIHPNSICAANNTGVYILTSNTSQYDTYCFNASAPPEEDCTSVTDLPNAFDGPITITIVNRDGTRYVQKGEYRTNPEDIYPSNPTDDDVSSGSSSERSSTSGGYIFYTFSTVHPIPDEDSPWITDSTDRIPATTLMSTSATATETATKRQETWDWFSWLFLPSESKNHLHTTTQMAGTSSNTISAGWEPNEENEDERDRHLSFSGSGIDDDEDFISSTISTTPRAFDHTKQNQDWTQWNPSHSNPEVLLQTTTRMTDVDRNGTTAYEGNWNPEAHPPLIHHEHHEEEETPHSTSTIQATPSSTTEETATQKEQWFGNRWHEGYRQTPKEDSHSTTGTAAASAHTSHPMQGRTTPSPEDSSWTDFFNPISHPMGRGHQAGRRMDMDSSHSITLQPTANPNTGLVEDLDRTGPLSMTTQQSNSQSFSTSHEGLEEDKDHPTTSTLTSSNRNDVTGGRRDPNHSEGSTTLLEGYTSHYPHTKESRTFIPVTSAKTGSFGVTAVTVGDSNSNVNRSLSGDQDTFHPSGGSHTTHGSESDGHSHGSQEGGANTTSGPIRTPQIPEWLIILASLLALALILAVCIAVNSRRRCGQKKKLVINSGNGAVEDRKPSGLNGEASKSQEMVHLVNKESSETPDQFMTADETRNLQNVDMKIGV
T2 sequence (P51654 25-554 limits assumed): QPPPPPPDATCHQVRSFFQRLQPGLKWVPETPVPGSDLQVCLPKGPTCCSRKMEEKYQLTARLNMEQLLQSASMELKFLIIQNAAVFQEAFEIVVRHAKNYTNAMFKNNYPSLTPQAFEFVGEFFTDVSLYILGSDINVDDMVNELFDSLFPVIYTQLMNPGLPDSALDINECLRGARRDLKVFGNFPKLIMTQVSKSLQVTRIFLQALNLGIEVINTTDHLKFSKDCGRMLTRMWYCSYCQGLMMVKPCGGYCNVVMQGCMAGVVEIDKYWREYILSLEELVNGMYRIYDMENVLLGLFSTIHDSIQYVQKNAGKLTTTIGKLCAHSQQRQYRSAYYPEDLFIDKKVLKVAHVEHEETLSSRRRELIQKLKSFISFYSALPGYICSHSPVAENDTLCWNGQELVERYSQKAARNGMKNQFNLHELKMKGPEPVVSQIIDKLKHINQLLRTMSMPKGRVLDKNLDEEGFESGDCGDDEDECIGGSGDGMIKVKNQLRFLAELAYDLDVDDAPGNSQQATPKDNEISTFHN

Take `CC(C)C[C@H](NC(=O)[C@H](Cc1ccc(O)cc1)NC(=O)[C@H](CO)NC(=O)[C@H](Cc1c[nH]c2ccccc12)NC(=O)CNC(=O)[C@H](CCCCN)NC(=O)[C@@H](N)Cc1c[nH]c2ccccc12)C(=O)N[C@@H](Cc1c[nH]c2ccccc12)C(=O)N[C@H](C(=O)N[C@@H](CCC(N)=O)C(=O)N[C@@H](CCC(N)=O)C(=O)N[C@@H](C)C(=O)NCC(=O)NCC(=O)NCC(=O)N[C@@H](CO)C(=O)N[C@@H](CCCCNC(=O)CCCCCN1C(=CC=C2CCCC(C=CC3=[N+](CCCCS(=O)(=O)[O-])c4ccc(S(=O)(=O)O)cc4C3(C)C)=C2Oc2ccc(S(=O)(=O)O)cc2)C(C)(C)c2cc(S(=O)(=O)O)ccc21)C(N)=O)[C@@H](C)O` [WKG*-IRDye800] (H-WKGWSYLWTQQAGGGSK(IRDye800CW)-NH2): the “binding to the surface of SK-Hep1 cells” value in the data set on CD44 [1] is given as “bind intensely”. In addition, the “Pearson's correlation coefficient, peptide and anti-CD44-AF488” value with CD44 [1] (merged image) worked out at 0.81. Further, the Kd with CD44 [2] came out at 43 nM. Further, the half-life in [3] is 5.1 h.

With “HPD*-IRDye800: lead EpCAM peptide HPDMFTRTHSHN (SEQ ID NO: 7) labeled with IRDye800 (also: IRDye800 label, site not given here)”, the “NIR fluorescence intensity versus control PFH*-IRDye800” value in data set [4] is “significantly greater”.

For `O=C([O-])CN1CCN(CC(=O)[O-])CCN(CC(=O)O)CCN(CC(=O)[O-])CC1.[Gd+3]` [free Gd-DOTA, Gd-DOTA], in [5], the T/B ratio is reported as 0.99±0.04.

B1: Cy5.5-labeled peptide multimer (ALL*, WKG* and HPD* on a tri-lysine linker) (designed binder)
peptide 1: ALLANHEELFQT
peptide 2: WKGWSYLWTQQA
peptide 3: HPDMFTRTHSHN
modifications: also: each peptide joined through PEG3 extension to a tri-lysine linker, Cy5.5 label, site not given here
notes: also called Cy5.5-labeled multimer; not shown: The branched tri-lysine linker with PEG3 extensions and the Cy5.5 label
Take B1: in data set [6], the “fold increase of fluorescence intensity versus the CD44 monomer WKG*-Cy5.5” value is 1.84 fold. Moreover, the “fold increase of fluorescence intensity versus the GPC3 monomer ALL*-Cy5.5” value with Glypican-3 (GPC3) turned out to be 5.48 fold. Moreover, the “fold increase of fluorescence intensity versus the EpCAM monomer HPD*-Cy5.5” value in data set [7] turned out to be 2 fold.

B2: WKG*-IRDye800 (IRDye800-labeled WKG* peptide monomer, WKGWSYLWTQQA) (peptide)
peptide: WKGWSYLWTQQA
modifications: also: IRDye800 label, site not given here
notes: also called IRDye800-labeled WKD* monomer peptide
In the case of B2, the Kd in data set [8] stood at 43 nM.

For the molecule HPDMFTRTHSHN (also: Cy5.5 label, site and linker not given here) [HPD*-Cy5.5 (Cy5.5-labeled EpCAM peptide monomer, HPDMFTRTHSHN)], in data set [9], the binding result is “binds”.
